Values of other authors as cited in patent US9109266B2, “Process of producing sugar composition comprising D-psicose and D-allose via strong alkaline isomerization of D-glucose/D-fructose or alkaline pre-treatment of D-glucose/D-fructose followed by isomerization in the presence of a basic ion exchange resin” (MATSUTANI CHEMICAL INDUSTRY CO., LTD., priority 2009, dated 2015).
Where two headings read alike, the source gives them in different places.

How the values were obtained:
[1] = for Body fat decrement ratio (%) / Body weight decrement ratio (%) / Feed intake decrement ratio (%): compared with control group; for reduction of blood sugar level / reduction of insulin level: reports 1 and 2
[2] = non-patent reference 10 (report 4)
[3] = D-psicose administration; non-patent reference 11
[4] = Report 2, D-allose at 3% in total solids
[5] = Report 1, D-psicose at 5% in total solids

Row | Compound | Body fat decrement ratio (%) [1, 4] [%] | Body weight decrement ratio (%) [1, 4] [%] | Feed intake decrement ratio (%) [1, 4] [%] | reduction of blood sugar level [1] | reduction of insulin level [1] | contribution to body weight [2] | contribution to the amount of feed intake [2] | Body fat decrement ratio (%) [1, 5] [%] | Body weight decrement ratio (%) [1, 5] [%] | Feed intake decrement ratio (%) [1, 5] [%] | intra-day variation of insulin level [3]
1 | O=C[C@H](O)[C@H](O)[C@H](O)[C@H](O)CO [D-allose] | 19 | 17 | 8 | No significant reduction | No significant reduction |  |  |  |  |  | 
2 | O=C[C@@H](O)[C@@H](O)[C@H](O)[C@H](O)CO [D-mannose] |  |  |  |  |  | never makes any contribution | never makes any contribution |  |  |  | 
3 | O=C(CO)[C@H](O)[C@H](O)[C@H](O)CO [D-psicose] |  |  |  | No significant reduction | No significant reduction |  |  | 15 | 6 | 6 | no reduction of insulin level
